Consider 20 compounds from PubChem BioAssay AID330 (DTP/NCI, 2004).

For this assay, the system named is P388 leukemia ip, CD2F1 mice, survival T/C. Put plainly: NCI In Vivo Anticancer Drug Screen. Data for tumor model P388 Leukemia (intraperitoneal) in CD2F1 (CDF1) mice. To be noted: endpoint: median survival time, higher = longer survival. The gist of the method:
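Mice carrying the transplanted tumor received test compound or vehicle. Survival was recorded in each group, and the value is the treated-group measurement divided by that of the vehicle-treated control group.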

Setting [1] is: dose: 50.0 mg/kg/injection, schedule: Q01DX005 (ip), vehicle: saline with Tween-80.
Where [2] appears, read: dose: 100.0 mg/kg/injection, schedule: Q01DX005 (ip), vehicle: saline with Tween-80.
Where [3] appears, read: dose: 200.0 mg/kg/injection, schedule: Q01DX005 (ip), vehicle: saline with Tween-80.
[4] abbreviates: dose: 100.0 mg/kg/injection, schedule: Q01DX009 (ip), vehicle: saline with Tween-80.
The mark [5] stands for this setting: dose: 200.0 mg/kg/injection, schedule: Q01DX009 (ip), vehicle: saline with Tween-80.
Where [6] appears, read: dose: 50.0 mg/kg/injection, schedule: Q01DX009 (ip), vehicle: saline.
[7] abbreviates: dose: 100.0 mg/kg/injection, schedule: Q01DX009 (ip), vehicle: saline.
[8] abbreviates: dose: 200.0 mg/kg/injection, schedule: Q01DX009 (ip), vehicle: saline.
The mark [9] stands for this setting: dose: 12.5 mg/kg/injection, schedule: Q01DX009 (ip), vehicle: saline with Tween-80.
Where [10] appears, read: dose: 25.0 mg/kg/injection, schedule: Q01DX009 (ip), vehicle: saline with Tween-80.
The mark [11] stands for this setting: dose: 50.0 mg/kg/injection, schedule: Q01DX009 (ip), vehicle: saline with Tween-80.

Each structure is given as a SMILES string. Several values for one entry are separate records, joined by “and”; a condition that tells them apart may be missing. Equal entries are not always repeated. Inconclusive results and toxic doses are left out. Numbered stars: 1 amine (or outer) side, 2 acyl side, 3 side chain; on linkers, the order of the positions; unused ones are H or OH. Bridge positions count the residues as written; N and C are the ends. Square brackets hold non-standard residues; d marks the D form. Peptide text beside a SMILES is read from it. I, II: the chains in the order shown. Actinocin(9to1) = Cc1c2oc3c(C)ccc(C(=O)[*:1])c3nc-2c(C(=O)[*:2])c(N)c1=O; NMeV = CN[CH](C(=O)O)C(C)C; Pip = O=C(O)[CH]1CCCCN1; Sar = CNCC(=O)O

In the case of `COc1cc(Cc2cnc(N)nc2N)cc(OC)c1OC`, the T/C reads like this: under setting [1], 100 % of control; under setting [2], 99 % of control; under setting [3], 100 % of control; (dose: 400.0 mg/kg/injection, schedule: Q01DX005 (ip), vehicle: saline with Tween-80) 100 % of control.

Consider `COc1cc2c(cc1OC)C(Cc1ccc3cc(OC)c(OC)cc3c1)=NCC2`, for which the T/C reads like this: under setting [4], 90 % of control; under setting [5], 90 % of control; (dose: 400.0 mg/kg/injection, schedule: Q01DX009 (ip), vehicle: saline with Tween-80) 100 % of control.

As to `CCOC(=O)NCNC(=O)OCC`, the T/C (dose: 50.0 mg/kg/injection, schedule: Q01DX009 (ip), vehicle: Klucel (hydroxypropylcellulose) (HPC)) is 100 % of control; the T/C (dose: 100.0 mg/kg/injection, schedule: Q01DX009 (ip), vehicle: Klucel (hydroxypropylcellulose) (HPC)) was 102 % of control; the T/C (dose: 100.0 mg/kg/injection, schedule: Q04DX002 (ip), vehicle: Klucel (hydroxypropylcellulose) (HPC)) is 117 % of control; the T/C (dose: 200.0 mg/kg/injection, schedule: Q04DX002 (ip), vehicle: Klucel (hydroxypropylcellulose) (HPC)) was 107 % of control; the T/C (dose: 400.0 mg/kg/injection, schedule: Q04DX002 (ip), vehicle: Klucel (hydroxypropylcellulose) (HPC)) is 110 % of control.

As for `CC(S)C(N)C(=O)O` (stereo not drawn), the T/C is, setting by setting: under setting [6], 100 % of control; under setting [7], 95 % of control; (dose: 100.0 mg/kg/injection, schedule: Q04DX002 (ip), vehicle: saline with Tween-80) 105 % of control and 94 % of control; under setting [8], 97 % of control; (dose: 200.0 mg/kg/injection, schedule: Q04DX002 (ip), vehicle: saline with Tween-80) 114 % of control and 90 % of control; (dose: 400.0 mg/kg/injection, schedule: Q04DX002 (ip), vehicle: saline with Tween-80) 114 % of control and 89 % of control.

Turning to `NCCCCCCCC(=O)NCCCCCCCC(=O)NCCCCCCCC(=O)NCCCCCCCC(=O)NN`, the T/C runs as follows: under setting [1], 100 % of control; under setting [2], 100 % of control; under setting [3], 91 % of control.

Turning to `N#[O+].O.O=N[O-].O=N[O-].[NH2-].[NH2-].[Ru+2]`, the T/C is 110 % of control (dose: 12.5 mg/kg/injection, schedule: Q04DX003 (ip), vehicle: water); 111 % of control (dose: 25.0 mg/kg/injection, schedule: Q04DX003 (ip), vehicle: water); 118 % of control (dose: 50.0 mg/kg/injection, schedule: Q04DX003 (ip), vehicle: water); 111 % of control (dose: 100.0 mg/kg/injection, schedule: Q04DX003 (ip), vehicle: water); 102 % of control (dose: 200.0 mg/kg/injection, schedule: Q04DX003 (ip), vehicle: water).

As to `CCNc1ccc(/C=C2\C=Cc3ccccc32)cc1`, for the setting “dose: 25.0 mg/kg/injection, schedule: Q01DX009 (ip), vehicle: Klucel (hydroxypropylcellulose) (HPC)”, the T/C was 110 % of control.

As for `CCCCOn1nnc2ccccc21`, the T/C is 94 % of control under setting [9]; 103 % of control under setting [10]; 100 % of control and 97 % of control under setting [11]; 101 % of control under setting [4]; 113 % of control under setting [5].

`O=Cc1c2cnc(c1O)CSCc1ccc(cc1)CSC2`: the T/C is 104 % of control under setting [1], 110 % of control under setting [2] and 113 % of control under setting [3].

On to `[N-]=[N+]=NC(=O)c1cnn(-c2ccccc2)c1N`, for which the T/C by setting is: (dose: 15.0 mg/kg/injection, schedule: Q01DX005 (ip), vehicle: saline with Tween-80) 101 % of control; (dose: 30.0 mg/kg/injection, schedule: Q01DX005 (ip), vehicle: saline with Tween-80) 97 % of control; (dose: 60.0 mg/kg/injection, schedule: Q01DX005 (ip), vehicle: saline with Tween-80) 106 % of control and 95 % of control.

For `OCCNCCN=C1CCC(=NCCNCCO)CC1`, the T/C was 107 % of control (dose: 50.0 mg/kg/injection, schedule: Q01DX005 (ip), vehicle: saline) and 105 % of control (dose: 100.0 mg/kg/injection, schedule: Q01DX005 (ip), vehicle: saline).

As to `Cc1ccc(C(=O)CCN(C)C)c(C)c1`, the T/C by setting is: (dose: 15.0 mg/kg/injection, schedule: Q01DX005 (ip), vehicle: saline) 106 % of control; (dose: 30.0 mg/kg/injection, schedule: Q01DX005 (ip), vehicle: saline) 100 % of control; (dose: 60.0 mg/kg/injection, schedule: Q01DX005 (ip), vehicle: saline) 89 % of control and 97 % of control.

As to `Cc1ccc(S(=O)(=O)/C(=N\O)c2ccc(Cl)cc2)cc1`, the T/C is, setting by setting: (dose: 50.0 mg/kg/injection, schedule: Q01DX005 (ip), vehicle: Klucel (hydroxypropylcellulose) (HPC)) 96 % of control; (dose: 100.0 mg/kg/injection, schedule: Q01DX005 (ip), vehicle: Klucel (hydroxypropylcellulose) (HPC)) 107 % of control; (dose: 200.0 mg/kg/injection, schedule: Q01DX005 (ip), vehicle: Klucel (hydroxypropylcellulose) (HPC)) 95 % of control.

For the compound `CC(O)c1nc2ncc(Br)cc2[nH]1` (stereo not drawn), the T/C runs as follows: (dose: 100.0 mg/kg/injection, schedule: Q01DX001 (ip), vehicle: saline with Tween-80) 93 % of control; (dose: 200.0 mg/kg/injection, schedule: Q01DX001 (ip), vehicle: saline with Tween-80) 99 % of control; (dose: 400.0 mg/kg/injection, schedule: Q01DX001 (ip), vehicle: saline with Tween-80) 101 % of control.

Take `CC(C)CCCCCCCCCCCCC(=O)NCC(=O)NC1C(C)OC(Nc2ncnc3c2ncn3C)C(O)C1O` (stereo not drawn): the T/C (dose: 1.56 mg/kg/injection, schedule: Q01DX009 (ip), vehicle: distilled water + Tween-80) is 98 % of control; the T/C (dose: 3.13 mg/kg/injection, schedule: Q01DX009 (ip), vehicle: distilled water + Tween-80) is 95 % of control; the T/C (dose: 6.25 mg/kg/injection, schedule: Q01DX009 (ip), vehicle: distilled water + Tween-80) is 101 % of control; the T/C (dose: 12.5 mg/kg/injection, schedule: Q01DX009 (ip), vehicle: distilled water + Tween-80) is 98 % of control; the T/C (dose: 25.0 mg/kg/injection, schedule: Q01DX009 (ip), vehicle: distilled water + Tween-80) was 90 % of control; the T/C (dose: 50.0 mg/kg/injection, schedule: Q01DX009 (ip), vehicle: distilled water + Tween-80) is 91 % of control.

For the compound `CCOc1cc(CN2CCN(CCO)CC2)c(O)c(CN2CCN(CCO)CC2)c1`, the T/C is 97 % of control (dose: 60.0 mg/kg/injection, schedule: Q01DX005 (ip), vehicle: water); 103 % of control (dose: 120.0 mg/kg/injection, schedule: Q01DX005 (ip), vehicle: water); 104 % of control (dose: 240.0 mg/kg/injection, schedule: Q01DX005 (ip), vehicle: water).

Consider `O=S(=O)(O)CCCS(=O)(=O)O`, for which the T/C reads like this: under setting [6], 98 % of control; under setting [7], 98 % of control; under setting [8], 101 % of control.

On to `Cc1cccc(/C=N/Nc2ccc3ccccc3n2)n1`, for which the T/C was 102 % of control (dose: 6.25 mg/kg/injection, schedule: Q01DX005 (ip), vehicle: Klucel (hydroxypropylcellulose) (HPC)); 95 % of control (dose: 12.5 mg/kg/injection, schedule: Q01DX005 (ip), vehicle: Klucel (hydroxypropylcellulose) (HPC)); 96 % of control (dose: 25.0 mg/kg/injection, schedule: Q01DX005 (ip), vehicle: Klucel (hydroxypropylcellulose) (HPC)).

Consider `N#Cc1ncc(C[P+](c2ccccc2)(c2ccccc2)c2ccccc2)nc1N`, for which the T/C under setting [9] is 91 % of control, the T/C under setting [10] is 94 % of control and the T/C under setting [11] was 95 % of control.

With `Cc1c2oc3c(C)ccc(C(=O)NC4C(=O)NC(C(C)C)C(=O)N5CCCCC5C(=O)N(C)CC(=O)N(C)C(C(C)C)C(=O)OC4C)c3nc-2c(C(=O)NC2C(=O)NC(C(C)C)C(=O)N3CCCCC3C(=O)N(C)CC(=O)N(C)C(C(C)C)C(=O)OC2C)c(N)c1=O` (stereo not drawn) (I: TV[Pip][Sar][NMeV] / II: TV[Pip][Sar][NMeV]; ester I:1-I:C, II:1-II:C; linker I:N-II:N via Actinocin(9to1); configuration not given here), the T/C is 110 % of control (dose: 0.39 mg/kg/injection, schedule: Q01DX009 (ip), vehicle: saline with Tween-80); 119 % of control (dose: 0.78 mg/kg/injection, schedule: Q01DX009 (ip), vehicle: saline with Tween-80); 180 % of control (dose: 1.56 mg/kg/injection, schedule: Q01DX009 (ip), vehicle: saline with Tween-80); 190 % of control (dose: 3.12 mg/kg/injection, schedule: Q01DX009 (ip), vehicle: saline with Tween-80); 165 % of control and 209 % of control (dose: 6.25 mg/kg/injection, schedule: Q01DX009 (ip), vehicle: saline with Tween-80); 195 % of control under setting [9].
